{
  "source": "paper PMC9947105",
  "about": "“Structural remodelling of the carbon–phosphorus lyase machinery by a dual ABC ATPase” (Nature Communications, 2023)",
  "key": {"[1]": {"target": "T1, Phn(GHIJK)2 closed, Zn2+ site at the PhnI-PhnJ interface (His site) (Escherichia coli, UniProt P16687+P16688)", "T1 construct": "class without PhnL density from the purified wild-type Phn(GHIJKL)2 sample (pRBS01, TEV-treated PhnK Strep-tag); with Alpha-D-ribose 1-methylphosphonate 5-triphosphate synthase subunit PhnH", "experiment": "cryo-EM structure, […] Å", "format": "binding", "details": "co-purified ligand modelled from density, identity not confirmed by mass spectrometry, absent in open state"}, "[2]": {"target": "T2, Phn(GHIJKL)2, PhnK nucleotide-binding site (Escherichia coli, UniProt P16678)", "T2 construct": "hetero-dodecamer, 327 kDa, expressed in E. coli Lemo21 from pRBS01 (phn genes from pBW120); C-terminal TEV-2xStrep-tag on PhnK, TEV-treated for wild-type cryo-EM sample; with Alpha-D-ribose 1-methylphosphonate 5-triphosphate synthase subunit PhnL; Alpha-D-ribose 1-methylphosphonate 5-phosphate C-P lyase; Alpha-D-ribose 1-methylphosphonate 5-triphosphate synthase subunit PhnI; Alpha-D-ribose 1-methylphosphonate 5-triphosphate synthase subunit PhnH", "experiment": "cryo-EM structure, […] Å", "details": "ATP turnover (1.5 mM ATP, 6 mM MgCl2, 37 °C, 15 s); post-hydrolysis state, ADP + Pi in PhnK site"}, "[3]": {"target": "T3, Phn(GHIJKL)2, PhnK nucleotide-binding site (Escherichia coli, UniProt P16678, E171Q)", "T3 construct": "hetero-dodecamer, 327 kDa, expressed in E. coli Lemo21 from pRBS01 (phn genes from pBW120); C-terminal TEV-2xStrep-tag on PhnK, TEV-treated for wild-type cryo-EM sample; with Alpha-D-ribose 1-methylphosphonate 5-triphosphate synthase subunit PhnL; Alpha-D-ribose 1-methylphosphonate 5-phosphate C-P lyase; Alpha-D-ribose 1-methylphosphonate 5-triphosphate synthase subunit PhnI; Alpha-D-ribose 1-methylphosphonate 5-triphosphate synthase subunit PhnH", "experiment": "cryo-EM structure, […] Å", "details": "5 mM AMPPNP, 5 mM MgCl2, pH 7.5; both PhnK sites, closed dimer; PhnL empty"}, "[4]": {"target": "T4, Phn(GHIJKL)2 (ATPase assay) (Escherichia coli, UniProt P16678+P16679)", "T4 construct": "gene phnK", "details": "1 or 5 mM ATP, Mg2+, pH 7.5, 37 °C (coupled assay); hydrolysis by PhnK and PhnL"}, "[5]": {"target": "T5, Phn(GHIJKL)2 (ATPase assay) (Escherichia coli, UniProt P16678+P16679, P16678:E171Q)", "T5 construct": "gene phnK", "details": "1 or 5 mM ATP, Mg2+, pH 7.5, 37 °C (coupled assay); hydrolysis by PhnK and PhnL"}, "[6]": {"target": "Phn(GHIJKL)2, PhnL nucleotide-binding site (Escherichia coli, UniProt P16679)", "details": "ATP turnover (1.5 mM ATP, 6 mM MgCl2, 37 °C, 15 s); both PhnL sites, dimer open; PhnK holds ADP + Pi"}, "[7]": {"target": "the molecule itself", "experiment": "cryo-EM structure; Phn(GHIJKL)2-PhnK E171Q co-expressed from the phnGHIJKLMNOP plasmid and purified as a complex on StrepTrap with AMPPNP; 2.5 mg/mL; 25 mM HEPES/KOH pH 7.5, 125 mM KCl, 5 mM MgCl2, 5 mM BME"}, "[8]": {"target": "the molecule itself", "experiment": "cryo-EM structure; wild type Phn(GHIJKL)2 purified as a complex with ATP and EDTA, then 1.5 mM ATP and 6 mM MgCl2, 15 s at 37 °C (ATP turnover); 3D classes: Phn(GHIJKL)2 with ADP + Pi, Phn(GHIJK)2 closed, Phn(GHIJK)2 open"}},
  "data": [
    {"molecule": "O=P(O)(O)OC[C@H]1O[C@@H]2OP(=O)(O)O[C@@H]2[C@@H]1O", "note": "[5-phospho-α-D-ribose-1,2-cyclic-phosphate]", "values": [
      {"measurement": "cryo-EM structure, 2.0 Å", "setting": "[1]", "value": "we were able to model the ligand as 5-phospho-α-D-ribose-1,2-cyclic-phosphate"}
    ]},
    {"molecule": "Nc1ncnc2c1ncn2[C@@H]1O[C@H](COP(=O)(O)OP(=O)(O)O)[C@@H](O)[C@H]1O", "note": "[ADP]", "values": [
      {"measurement": "cryo-EM structure, 1.9 Å", "setting": "[2]", "value": "contains ADP and Pi and consequently represents a true ATP post-hydrolysis state"}
    ]},
    {"molecule": "Nc1ncnc2c1ncn2[C@@H]1O[C@H](COP(=O)(O)OP(=O)(O)NP(=O)(O)O)[C@@H](O)[C@H]1O", "note": "[AMPPNP]", "values": [
      {"measurement": "cryo-EM structure, 2.1 Å", "setting": "[3]", "value": "clear density for AMPPNP allowed for modelling of a nucleotide in both active site pockets"}
    ]},
    {"molecule": "Nc1ncnc2c1ncn2[C@@H]1O[C@H](COP(=O)(O)OP(=O)(O)OP(=O)(O)O)[C@@H](O)[C@H]1O", "note": "[ATP]", "values": [
      {"measurement": "ion exchange of nucleotides; coupled pyruvate kinase / lactate dehydrogenase ATP", "setting": "[4]", "value": "clear ATPase activity for the wildtype PhnGHIJKL complex"},
      {"measurement": "ion exchange of nucleotides; coupled pyruvate kinase / lactate dehydrogenase ATP", "setting": "[5]", "value": "we observed a significantly reduced ATPase activity"},
      {"measurement": "cryo-EM structure, 1.9 Å", "setting": "[6]", "value": "binding of ATP to both nucleotide binding sites in PhnL"}
    ]},
    {"molecule": "PhnK E171Q with a C-terminal TEV-2xStrep-tag (natural protein, Escherichia coli, PhnK, non-transporter ABC protein of the Escherichia coli phn operon, with the Walker B mutation E171Q; also called Phn(GHIJKL)2-PhnK E171Q; not shown: 2xStrep-tag (after a TEV site), C-terminal, kept) MNQPLLSVNNLTHLYAPGKGFSDVSFDLWPGEVLGIVGESGSGKTTLLKSISARLTPQQGEIHYENRSLYAMSEADRRRLLRTEWGVVHQHPLDGLRRQVSAGGNIGERLMATGARHYGDIRATAQKWLEEVEIPANRIDDLPTTFSGGMQQRLQIARNLVTHPKLVFMDQPTGGLDVSVQARLLDLLRGLVVELNLAVVIVTHDLGVARLLADRLLVMKQGQVVESGLTDRVLDDPHHPYTQLLVSSVLQN", "values": [
      {"measurement": "binding result", "setting": "[7]", "value": "binds"}
    ]},
    {"molecule": "PhnK wild type, TEV-2xStrep-tag removed with TEV protease (natural protein, Escherichia coli, PhnK, non-transporter ABC protein of the Escherichia coli phn operon; Residues of the TEV site probably stay at the C-terminus after cleavage; also called wild type PhnK; not shown: 2xStrep-tag (after a TEV site), C-terminal, cleaved) MNQPLLSVNNLTHLYAPGKGFSDVSFDLWPGEVLGIVGESGSGKTTLLKSISARLTPQQGEIHYENRSLYAMSEADRRRLLRTEWGVVHQHPLDGLRRQVSAGGNIGERLMATGARHYGDIRATAQKWLEEVEIPANRIDDLPTTFSGGMQQRLQIARNLVTHPKLVFMDEPTGGLDVSVQARLLDLLRGLVVELNLAVVIVTHDLGVARLLADRLLVMKQGQVVESGLTDRVLDDPHHPYTQLLVSSVLQN", "values": [
      {"measurement": "binding result", "setting": "[8]", "value": "binds"}
    ]},
    {"molecule": "PhnI (natural protein, Escherichia coli, PhnI, subunit of carbon-phosphorus lyase, Escherichia coli phn operon; untagged, encoded on the expression plasmid; Whole phn genes amplified from pBW120; also called PhnI subunit of the C–P lyase core complex) MYVAVKGGEKAIDAAHALQESRRRGDTDLPELSVAQIEQQLNLAVDRVMTEGGIADRELAALALKQASGDNVEAIFLLRAYRTTLAKLAVSEPLDTTGMRLERRISAVYKDIPGGQLLGPTYDYTHRLLDFTLLANGEAPTLTTADSEQQPSPHVFSLLARQGLAKFEEDSGAQPDDITRTPPVYPCSRSSRLQQLMRGDEGYLLALAYSTQRGYGRNHPFAGEIRSGYIDVSIVPEELGFAVNVGELLMTECEMVNGFIDPPGEPPHFTRGYGLVFGMSERKAMAMALVDRALQAPEYGEHATGPAQDEEFVLAHADNVEAAGFVSHLKLPHYVDFQAELELLKRLQQEQNHG", "values": [
      {"measurement": "binding result", "setting": "[8]", "value": "binds"}
    ]},
    {"molecule": "PhnL (natural protein, Escherichia coli, PhnL, non-transporter ABC protein of the Escherichia coli phn operon; untagged; β hairpin extension residues 7-14; Identified in the complex by mass spectrometry and by the EM density; also called PhnL subunit; ABC module PhnL; source: E. coli Lemo21 (pRBS01 or pRBS01-PhnK E171Q), co-expressed, purified as part of the complex through Strep-tagged PhnK) MINVQNVSKTFILHQQNGVRLPVLNRASLTVNAGECVVLHGHSGSGKSTLLRSLYANYLPDEGQIQIKHGDEWVDLVTAPARKVVEIRKTTVGWVSQFLRVIPRISALEVVMQPLLDTGVPREACAAKAARLLTRLNVPERLWHLAPSTFSGGEQQRVNIARGFIVDYPILLLDEPTASLDAKNSAAVVELIREAKTRGAAIVGIFHDEAVRNDVADRLHPMGASS", "values": [
      {"measurement": "binding result", "setting": "[8]", "value": "binds"}
    ]}
  ]
}
